Measurements: patent publication US20240390357A1, “PYRIDINES AND THEIR USE IN TREATMENT OF GBA-RELATED DISEASES” (ZEVRA DENMARK A/S, priority 2021, published 2024)
Marks after values point to notes of the source that are not given here.

Biological target: T1, GBA (glucosylceramidase, GCase), L444P GBA mutation (Homo sapiens, UniProt P04062, L483P)
T1 construct: Human fibroblast cell line GM10915 harboring the L444P GBA mutation was obtained from Coriell Biorepositories; host or cells: GM10915 human fibroblasts
T1 sequence (P04062 40-536 L483P): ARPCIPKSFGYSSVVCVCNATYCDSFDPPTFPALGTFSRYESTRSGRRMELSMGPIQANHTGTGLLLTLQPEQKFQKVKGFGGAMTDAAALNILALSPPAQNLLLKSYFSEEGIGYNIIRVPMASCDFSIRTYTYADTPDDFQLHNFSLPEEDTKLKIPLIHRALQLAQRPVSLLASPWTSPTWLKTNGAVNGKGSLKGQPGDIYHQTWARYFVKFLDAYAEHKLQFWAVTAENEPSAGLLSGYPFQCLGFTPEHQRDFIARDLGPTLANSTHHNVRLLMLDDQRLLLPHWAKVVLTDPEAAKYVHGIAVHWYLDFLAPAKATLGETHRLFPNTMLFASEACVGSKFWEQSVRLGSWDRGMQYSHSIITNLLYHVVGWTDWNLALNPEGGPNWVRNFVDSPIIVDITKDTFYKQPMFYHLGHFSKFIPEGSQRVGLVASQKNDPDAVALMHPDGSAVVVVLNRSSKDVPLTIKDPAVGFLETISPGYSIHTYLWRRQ
Experiment: GCase activity assay (4-MUG) in GM10915 fibroblasts, normalised to crystal violet staining
Type: cell-based
Conditions: five days exposure; for GBA EC1.5: concentration where Percent GCase activity = 150% (1.5-fold induction), human fibroblast cell line GM10915 (L444P GBA), 8-point dose range; for Emax / GBA Emax: maximum Percent GCase activity in the dose range tested, relative to basal activity of untreated cells, GM10915 (L444P GBA)
Experimental: Human fibroblast cell line GM10915 harboring the L444P GBA mutation was obtained from Coriell Biorepositories.
The GM10915 cell line was cultured under standard cell culture conditions (37° C. and 5% CO2) in complete DMEM medium supplemented with nonessential amino acids (NEAA), 1% Pen-Strep and 12% FCS. Cells were seeded at a density of 10^4 cells/well in 100 μL complete medium in one black 96-well plate for glucosylceramidase (GCase) activity measurement and in one clear 96-well plate for crystal violet staining to correct for cell density. Crystal violet staining is performed to obtain quantitative information about the relative density of cells adhering to multi-wells plates.
The assay was adapted from Sawkar et al (2002) and briefly described in the following. The day after seeding of cells, the medium was replaced with fresh medium containing the compounds to be tested. Compounds were tested in duplicate and in an 8-point diluted dose range to obtain a dose response. Cells were exposed with compounds for five days. Fresh compound was added every 2-3 days. PBS was included to define the basal level of GCase activity.
Cells were washed three times with 200 μL PBS per well and 50 μL of 2.5 mM 4-MUG buffer (4-MUG dissolved in 0.2 M acetate buffer pH 4.0) was added and the cells were incubated at 37° C., 5% CO2 for 23 hours. The reaction was stopped by adding 150 μL 0.2 M glycine buffer (pH 10.8). Fluorescence was measured with a Varioskan® Flash reader (Thermo Scientific) at an excitation/emission setting of 365/445 nm.
Cells were treated with compounds in a parallel setup identical to the setup to test for GCase activity. At the end of compound treatment, cells were washed once with 200 μL PBS per well and 50 μL 0.1% w/v crystal violet (in H20) was added. Following 10 min. of incubation, the crystal violet solution was removed, and the cells were washed three times with 200 μL PBS and 100 μL 1% SDS was added to solubilize the stain.
The plate was agitated on an orbital shaker for 10-30 min. Absorbance (A) is measured at […] using a Varioskan® Flash reader (Thermo Scientific).
The fluorescence signal (F) derived from the GCase measurement is normalized to the absorbance signal (A) derived from the crystal violet staining. The percent GCase activity resulting from compound treatment is calculated relative to the basal activity obtained from untreated cells.
Maximal effect of compounds (E max) is determined from the dose response effects as the maximum “Percent GCase activity” achieved in the dose range tested.

Structure (SMILES)	GBA EC1.5	Emax [%]	GBA Emax [%]
Nc1c(Br)cc(Br)cc1CN[C@H]1CC[C@H](O)CC1 [Ambroxol, reference compound]	>20* *The 1.5-fold induction criteria was not reached within the tested concentration range μM		
CCCCCO[C@H]1CC[C@H](NC(=O)c2cnn3c(C)cc(C)nc23)CC1 [LTI-291, reference compound]	112 µM		
c1cn(C2CCNCC2)nc1CN1CCCCC1 [compound 624]	21 µM	189	
C1=C(c2ccc(CN3CCCCC3)cn2)CNC1 [compound 666]	9.2 µM	253	
COc1ncc(C2CCNCC2)cc1CN1CCCCC1 [compound 715]	24.8 µM	160	
COc1ncc(C2CCN(C)CC2)cc1CN1CCCCC1 [compound 735]	2.3 µM	212	
CN1CCCC(c2cncc(CN3CCCCC3)c2)C1 (stereo not shown) [compound 736]	3.7 µM	216	
Cc1cc(C2CCCN(C)C2)nc(CN2CCCCC2)n1 (stereo not shown) [compound 738]	5.4 µM	248	
CC(c1cncc(C2CCCNC2)c1)N1CCCCC1 (stereo not shown) [compound 761]	5.2 µM	205	
CC(c1cncc(C2CCNCC2)c1)N1CCCCC1 (stereo not shown) [compound 772]	18.5 µM	211	
CN1CCCC(c2cnc(CN3CCCCC3)cn2)C1 (stereo not shown) [compound 773]	3.9 µM	236	
CN1CCC(c2cnc(CN3CCCCC3)cn2)CC1 [compound 774]	9.7 µM	198	
CN1CCCC(c2ccc(CN3CCCCC3)nc2)C1 (stereo not shown) [compound 776]	4.3 µM	200	
Cc1cc(CN2CCCCC2)cnc1C1CCN(C)CC1 [compound 777]	6.9 µM	200	
CN1CCC(c2cc(CN3CCCCC3)ncn2)CC1 [compound 784]	6.5 µM	155	
CN1CCC(c2cccc(CN3CCCCC3)n2)CC1 [compound 794]	3.0 µM	269	
Cc1cc(CN2CCCCC2)cc(C2CCN(C)CC2)n1 [compound 795]	7.0 µM	185	
CN1CCCC(c2cccc(CN3CCCCC3)n2)C1 (stereo not shown) [compound 796]	2.6 µM	267	
CN1CCC(c2cccc(CN3CCCCC3)n2)C1 (stereo not shown) [compound 798]	2.5 µM	250	
Cc1ccc(CN2CCCCC2)nc1C1CCN(C)CC1 [compound 801]	3.9 µM	173	
CN1CCCC(c2cc(CN3CCCCC3)ncn2)C1 (stereo not shown) [compound 802]	8.8 µM	256	
CN1CCCC(c2ccc(CN3CCCCC3)cn2)C1 (stereo not shown) [compound 810]	4.9 µM	199	
COc1ncc(C2CCN(C)C2)cc1CN1CCCCC1 (stereo not shown) [compound 812]	6.7 µM	255	
c1nc2cnc(C3CCNCC3)cn2c1CN1CCCCC1 [compound 841]	35.9 µM	181	
Fc1c(CN2CCCCC2)ccnc1C1CCNCC1 [compound 846]	2.8 µM	245	
c1cc2ncc(CN3CCCCC3)n2cc1C1CCNCC1 [compound 853]	8.0 µM	193	
c1cn2cc(CN3CCCCC3)nc2cc1C1CCNCC1 [compound 854]	9.4 µM	194	

The next lines start with the values.

GBA EC1.5	Emax [%]	GBA Emax [%]	Structure (SMILES)
5.4 µM	177		c1cc(CN2CCCCC2)cc(C2CCNCC2)n1 [compound 540]
7.5 µM	234		c1c(C2CCNCC2)noc1CN1CCCCC1 [compound 586]
46 µM	169		C1CCN(Cc2noc(C3CCCNC3)n2)CC1 (stereo not shown) [compound 614]
3.5 µM	236		c1nc(C2CCNCC2)sc1CN1CCCCC1 [compound 620]
4.1 µM	263		c1cc(CN2CCCCC2)nc(C2CCNCC2)n1 [compound 638]
4.9 µM	381		c1c(C2CCNC2)noc1CN1CCCCC1 (stereo not shown) [compound 654]
16 µM	205		Cn1nc(C2CCCNC2)cc1CN1CCCCC1 (stereo not shown) [compound 708]
2.7 µM	223		COc1ncc(C2CCCNC2)cc1CN1CCCCC1 (stereo not shown) [compound 729]
5.0 µM		234	Cc1cc(C2CCCNC2)nc(CN2CCCCC2)n1 (stereo not shown) [compound 730]
3.2 µM	200		Cc1cc(CN2CCCCC2)nc(C2CCCNC2)c1 (stereo not shown) [compound 732]
21.5 µM		203	Cc1cc(C2CCCNC2)nc(CN2CCCCC2)n1 (stereo not shown) [compound 737]
30.8 µM	176		Cc1cc(C2CCNCC2)nc(CN2CCCCC2)n1 [compound 739]
19.1 µM	190		c1nc(C2CCNCC2)cnc1CN1CCCCC1 [compound 753]
11.8 µM	180		c1nc(C2CCCNC2)cnc1CN1CCCCC1 (stereo not shown) [compound 754]
4.2 µM	214		c1cc(CN2CCCCC2)ncc1C1CCCNC1 (stereo not shown) [compound 757]
3.1 µM	233		Cc1cc(CN2CCCCC2)cnc1C1CCCNC1 (stereo not shown) [compound 758]
6.6 µM	200		c1cc(C2CCNCC2)ncc1CN1CCCCC1 [compound 759]

GBA EC1.5	Emax [%]	GBA Emax [%]	Structure (SMILES)
4.3 µM	211		Cc1cc(CN2CCCCC2)cnc1C1CCNCC1 [compound 760]
3.3 µM	227		Cc1cc(CN2CCCCC2)cc(C2CCNCC2)n1 [compound 764]
18.9 µM	205		c1ncc(C2CCNC2)cc1CN1CCCCC1 (stereo not shown) [compound 769]
24.5 µM	186		c1cc(CN2CCCCC2)ncc1C1CCNCC1 [compound 775]
7.4 µM	152		Cc1ccc(CN2CCCCC2)nc1C1CCNCC1 [compound 778]
8.0 µM	278		c1cc(CN2CCCCC2)nc(C2CCNCC2)c1 [compound 788]
4.4 µM	165		c1cc(CN2CCCCC2)nc(C2CCCNC2)c1 (stereo not shown) [compound 791]
29.2 µM	165		c1cc(CN2CCCCC2)nc(C2CCNC2)c1 (stereo not shown) [compound 793]
6.0 µM	203		COc1ncc(C2CCNC2)cc1CN1CCCCC1 (stereo not shown) [compound 803]
28.6 µM	175		c1cc(CN2CCCCC2)ncc1C1CCNC1 (stereo not shown) [compound 808]
3.4 µM	263		c1cc(C2CCCNC2)ncc1CN1CCCCC1 (stereo not shown) [compound 811]
18.0 µM	175		c1nc(CN2CCCCC2)cc(C2CCNC2)n1 (stereo not shown) [compound 832]
12.1 µM	203		c1cc2c(CN3CCCCC3)c[nH]c2nc1C1CCCNC1 (stereo not shown) [compound 833]
43.3 µM	163		c1cc(C2CCNCC2)nnc1CN1CCCCC1 [compound 855]
6.5 µM	204		c1nc2cc(CN3CCCCC3)oc2cc1C1CCNCC1 [compound 868]
4.3 µM	237		Fc1cc(C2CCNCC2)cnc1CN1CCCCC1 [compound 880]
